Read-outs that look alike come from different tables or passages of the source.
How the values were obtained:
[1] = tested on: Nilaparvata lugens; assay: Insecticidal effect on larvae of brown rice planthopper through systemic activity (root uptake); type: in vivo; details: for Death rate (%) 0.8 ppm: 0.8 ppm agent solution at rice roots; for Death rate (%) 0.8 ppm / Death rate (%) 3.1 ppm: larvae placed after 3 days, 4th day, 25° C.; for Death rate (%) 3.1 ppm: 3.1 ppm agent solution at rice roots; for insecticidal activity through systemic property, in words: summary of Table 6
Method: Roots of young rice seedlings (height: about 10 cm) planted in a plastic cup were washed with water and soil was washed away so as not to damage the fine roots. The stem was pinched by a urethane tip (diameter: 3 cm, height: 2 cm) having a cut line and the roots were inserted into an Erlenmeyer flask to which 50 ml of an agent solution (an aqueous dilution of the agricultural and horticultural insecticide of the present invention prepared in accordance with Formulation Example 1) was placed beforehand (2 to 3 young rice seedlings/flask). The urethane chip was wedged into the mouse of the flask to fix the rice seedlings. A glass tube (diameter: 3 cm, height: 5 cm) was placed thereon, wedged into the urethane chip, and fixed with a tape. The flask in such state was kept in a constant temperature room at 25° C. for 3 days. Five larvae of Nilaparvata lugens were placed in the glass tube and then the tube was capped with a urethane chip, followed by keeping in the constant temperature room at 25° C. (duplicates at a concentration). The mortality and agony of the larvae were investigated on 4th day after the treatment to obtain a death rate (%) taking an agonizing insect as a ½ dead insect. This test was carried out on two agent solutions different in the concentration of the active ingredient. The results are shown in Table 6 (the compound numbers in the table correspond to the numbers in Table 1).
Additionally, as reference compounds, Compounds I, II and III described in JP-A-10-338676 were similarly tested.

[2] = tested on: Chinese hamster lung fibroblast line V79; assay: In vitro intercellular metabolic cooperation inhibition test (IMC); type: cell-based
Method: In this Test Example, using an inhibitory action of gap-junctional intercellular communication as an index, the existence of carcinogenicity (tumor-promoting action) of a compound was investigated.
In this test, a mixed culture system of Chinese hamster lung fibroblast line V79 (hgprt+) having hypoxanthine-guanine phosphoribosyltransferase activity and cells having no such activity (hgprt−) was treated by adding thereto the following compounds together with 6-thioguanine (6-TG). When the intercellular communication is normal, the toxic metabolite of 6-TG formed in hgprt+ cells (6-TG sensitive) is transferred into hgprt− cells (6-TG resistant) through gap junction, so that both of the cells die. On the other hand, when the intracellular communication is inhibited by the test compound, only the hgprt− cells survive and form colonies.

[3] = tested on: Nilaparvata lugens; assay: Insecticidal effect on larvae of brown rice planthopper, spray test; type: in vivo; details: 500 ppm, sprayed, 4th instar larvae, 25° C., after 5 days; agonizing insect counted as 1/2 dead
Method: A rice seedling was planted in a glass cylinder (inner diameter: 3 cm×length: 17 cm), and five 4th instar larvae of Nilaparvata lugens were set free therein. An agricultural and horticultural insecticide of the present invention was prepared in accordance with Formulation Example 3 and diluted with water, and 0.5 ml of the resulting dilution was sprayed into the above glass cylinder with a spraying tower (manufactured by Mizuho Rika) (duplicates at a concentration). The cylinder was kept in a constant temperature room at 25° C., and the mortality and agony of the larvae were investigated after 5 days from the treatment to obtain a death rate (%) taking an agonizing insect as a ½ dead insect. The results obtained are shown in Table 2 (the compound numbers in the table correspond to the numbers in Table 1).

[4] = tested on: Plutella xylostella; assay: Insecticidal effect on larvae of diamond back moth, cabbage leaf disc dip; type: in vivo; details: 500 ppm, 3-instar larvae, 25° C., after 4 days, agonizing insect counted as 1/2 dead
Method: A disc (diameter: 6 cm) cut out of a cabbage leaf was for 1 minute in an aqueous dilution of the agricultural and horticultural insecticide of the present invention prepared in accordance with Formulation Example 1, then air-dried, and placed in a plastic cup (inner diameter: 7 cm). Five 3-instar larvae of Plutella xylostella were set free in the cup (duplicates at a concentration). The cup was kept in a constant temperature room at 25° C., and the death and agony of the larvae were investigated after 4 days from the treatment to obtain a death rate (%) taking an agonizing insect as a ½ dead insect. The results are shown in Table 3 (the compound numbers in the following table below correspond to the numbers in Table 1).

[5] = tested on: Callosobruchus chinensis; assay: Insecticidal effect on imagoes of adzuki bean weevil, spray test; type: in vivo; details: 500 ppm, sprayed, 25° C., after 4 days, agonizing insect counted as 1/2 dead
Method: Two adzuki beans were put in a glass cylinder (inner diameter: 3 cm×length: 15 cm), and 10 imagoes of Callosobruchus chinensis were set free therein. An agricutural and horticultural insecticide of the present invention was prepared in accordance with Formulation and diluted with water, and 0.3 ml of the resulting dilution was sprayed in the above glass cylinder with a spray tower (manufactured by Mizuho Rika) (duplicates at a concentration). The cylinder was kept in temperature room at 25° C., and the mortality and agony of thee larvae were investigated after 4 days from the treatment to obtain a death rate (%) taking an agonizing insect as a ½ dead insect. The results obtained are shown in Table 4 (the compound numbers in the table correspond to the numbers in Table 1).

[6] = tested on: Myzus persicae; assay: Insecticidal effect on larvae of green peach aphid, leaf soak; type: in vivo; details: 500 ppm, leaves soaked about 5 seconds, 25° C., 4th day after treatment
Method: Water was put in a screw bottle (volume: 10 ml), and a leaftalk of Japanese radish was placed therein and then inoculated with 5 to 6 insects of Myzus persicae per leave. After the inoculation, the bottle was put in a glass cylinder (diameter: 3.5 cm; height: 15 cm, with a mesh cover), and the insects were let to proliferate in a constant temperature room kept at 25° C. for 3 days. The imagoes on the leaves were removed, and the leaves were soaked in an aqueous dilution of an agricultural and horticultural insecticide of the present invention prepared in accordance with Formulation Example 3 (for about 5 seconds) and then returned into the glass cylinder (duplicates at a concentration). The cylinder was kept in the constant temperature room at 25° C., and the number of the insects on the leaves was counted on the 4th day after the treatment to obtain a death rate (%) based on the results. The results obtained are shown in Table 5 (the compound numbers in the table correspond to the numbers in Table 1).

[7] = tested on: Cat Flea; assay: Insecticidal effect on cat flea, treated filter; type: in vivo; details: 0.7 mg/filter; mortality investigated on 1st day and 2nd day after treatment
Method: Onto a round filter (diameter: 10 cm) was added dropwise 0.7 ml of an agent solution diluted to a predetermined concentration. After drying, the filter was placed on the bottom of a cylinder (diameter: 10 cm×height: 30 cm). Ten fleas were set free therein and the mortality was investigated on 1st day and 2nd day after the treatment to calculate a death rate (%) based on the results. The results are shown in Table 7 (the compound numbers in the table correspond to the numbers in Table 1).

| SMILES | Death rate (%) 0.8 ppm [1] [%] | Death rate (%) 3.1 ppm [1] [%] | insecticidal activity through systemic property, in words [1] | IMC test result (inhibition of gap-junctional intercellular communication, index of tumor-promoting action) [2] | colony forming rate ([2]; at 7.5 and 15 μg/ml, V79 hgprt+/hgprt- mixed culture with 6-thioguanine) | Death rate (%) [3] [%] | Death rate (%) [4] [%] | Death rate (%) [5] [%] | Death rate (%) [6] [%] | IMC test result (inhibition of gap-junctional intercellular communication, index of tumor-promoting action) ([2]; V79 hgprt+/hgprt- mixed culture with 6-thioguanine) | Death rate (%) [7] [%] |
| --- | --- | --- | --- | --- | --- | --- | --- | --- | --- | --- | --- |
| CSc1c(C#N)nn(-c2c(Cl)cc(C(F)(F)F)cc2Cl)c1NCc1ccncc1 [Compound I] | 100 | 100 | insecticidal activity through a high systemic property | positive | significant increase |  |  |  |  |  |  |
| N#Cc1nn(-c2c(Cl)cc(C(F)(F)F)cc2Cl)c(NCc2ccncc2)c1SCF [Compound No. 1, 1-(2,6-dichloro-4-trifluoromethylphenyl)-4-fluoromethylthio-5-(pyridin-4-ylmethylamino)pyrazole-3-carbonitrile] | 100 | 100 |  |  |  | 100 | 100 | 100 | 100 |  |  |
| N#Cc1nn(-c2c(Cl)cc(C(F)(F)F)cc2Cl)c(NCc2ccccn2)c1SC(F)F [Compound No. 2, 1-(2,6-dichloro-4-trifluoromethylphenyl)-4-difluoromethylthio-5-(pyridin-2-ylmethylamino)pyrazole-3-carbonitrile] | 100 | 100 |  |  |  | 100 | 100 | 100 | 100 | negative | 100 |
| N#Cc1nn(-c2c(Cl)cc(C(F)(F)F)cc2Cl)c(NCc2ccccn2)c1SC(F)(F)F [III] | 0 | 0 | obviously inferior effect |  |  |  |  |  |  |  |  |
| N#Cc1nn(-c2c(Cl)cc(C(F)(F)F)cc2Cl)c(NCc2ccncc2)c1SC(F)(F)F [II] | 20 | 50 | obviously inferior effect |  |  |  |  |  |  |  |  |
